Data taken from patent US20230332237A1, “Molecular Biomarkers for Predicting Patient Response to Steroid Therapy” (Florida State University Research Foundation, Inc., priority 2022, published 2023).

Key:
[1] = test system: steroid sensitive keloid fibroblasts; experiment: RNA-seq differential gene expression in steroid sensitive keloid fibroblasts following TA treatment; format: cell-based, human; conditions: 10 μM TA for 96 hrs vs DMSO, Padj≤0.05
Excerpt: (§1) Culture of keloid-derived primary fibroblasts. Surgically excised keloid and normal skin explants were obtained from patients under Florida State University institutional review board guidelines (Approved by the Human Subjects Committee (HSC) of the Florida State University Institutional Review Board; HSC numbers: 2016.19175 and 2017.22173). The explants were cut into small pieces, digested with trypsin, and washed with and cultured in Dulbecco's Modified Eagle Medium containing 10% fetal bovine serum and antibiotic/antimycotic solution maintained at 37.8° C. (98.68° F.) and 5% carbon dioxide. Outgrowth of only primary dermal fibroblasts occurred under our culture conditions, and these were recovered by trypsinization for use in experiments at low passage. The keloid fibroblasts are morphologically identical to commercially obtained normal primary human dermal fibroblasts (HDF; Cell Applications, Inc., San Diego, CA) used as our normal controls. […]
(§2) RNA extraction. […] The quality and quantity of each RNA sample was measured by Tapestation (Agilent). […]
(§3) RNA-seq. […] The RNA-seq libraries were sequenced on a NovaSeq 6000 sequencer (Illumina) to obtain 2×100 or 2×150-base reads. […] FASTQC was used to filter out reads of low to moderate quality. Paired-end reads were mapped to the GRCh38 reference genome using Salmon (28). The average mapped reads were 323M reads per sample and average mapped rate was 94.8%. […]

[2] = test system: steroid resistant keloid fibroblasts; experiment: RNA-seq differential gene expression in steroid resistant keloid fibroblasts following TA treatment; format: cell-based, human; conditions: 10 μM TA for 96 hrs vs DMSO, Padj≤0.05
Excerpt: as §1, §2, §3

IGF1 = conditions: treatment with prednisolone; literature refs 23, 24; cited from earlier work
IGFBP1 = conditions: treatment with prednisolone; literature refs 23, 24; cited from earlier work
IGFBP2 = conditions: treatment with prednisolone; literature refs 23, 24; cited from earlier work

Question: For CC1(C)O[C@@H]2C[C@H]3[C@@H]4CCC5=CC(=O)C=C[C@]5(C)[C@@]4(F)[C@@H](O)C[C@]3(C)[C@]2(C(=O)CO)O1 [TA, Triamcinolone Acetonide], which “genes downregulated after TA treatment” value [1] is on record?
Answer: The value was 521.

Question: And the “genes upregulated after TA treatment” value [1]?
Answer: The value was 526.

Question: And the “genes downregulated after TA treatment” value [2]?
Answer: Its value is 106.

Question: And the “genes upregulated after TA treatment” value [2]?
Answer: The value was 131.

Question: With C[C@]12C=CC(=O)C=C1CC[C@@H]1[C@@H]2[C@@H](O)C[C@@]2(C)[C@H]1CC[C@]2(O)C(=O)CO [prednisolone] as the molecule, how does the “serum IGF1 concentration” value (IGF1) read?
Answer: The value was “increases”.

Question: What about the IGFBP1 (IGFBP1) of the same molecule?
Answer: The IGFBP1 was “reduces”.

Question: And the IGFBP2 (IGFBP2)?
Answer: The IGFBP2 was “reduces”.
